Assay results: US20240360137A1 (Novartis AG, priority 2023, published 2024)

What was measured:
Test in all cases: CDKi biochemical assay (TR-FRET, phosphorylation of S780 on RB1 peptide)
CDK2/CyclinE1 = CDK2/CyclinE1 (Homo sapiens, UniProt P24941); conditions: CDK2/CyclinE1 100 pM, 1 mM ATP, 60 min at 25° C.
Protocol: (§1) Biochemical assays measured the inhibitory effects of compounds in this disclosure on the enzymatic activity of CDK enzyme in complex with Cyclin protein partner by phosphorylation of Ser-780 (S780) on retinoblastoma protein peptide (RB1) in the presence of 1 mM adenosime-5-triphosphate (ATP) and varying concentration of test compound in 20 mM 2-[4-(2-hydroxyethyl)paperazin-1-yl] ethanesulfonic acid (HEPES), pH 7.5, 10 mM MgCl2, 1 mM dithiothreitol (DTT), 0.01% bovine serum albumin (BSA), 0.005% Tween 20. Total Reaction volume of 10 μL proceeded for 60 minutes at room temperature (25° C.) and were quenched with 5 μL of 200 mM 2′,2″,2′″-(Ethane-1,2-diyldinitrilo)tetraacetic acid (EDTA) pH 8.0 before addition of 5 μL detection solution containing 100 nM fluorophore conjugate streptavidin allophycocyanin (SA-APC), 2 nM Europium labelled Anti-p-RB(S780)-K (Perkin Elmer, 64CUSKAY), 50 mM HEPES, pH 7.5, 400 mM potassium fluoride (KF), 0.1% BSA, and 0.01% Tween-20. Phosphorylation of S780 on RB1 peptide (His-MBP-RB1[773-924]-SEQ ID NO. 9) was detected by TR-FRET after 3 hour incubation with detection solution. Percent phosphorylation activity was plotted against log concentration of compound to generate an apparent ICSO. The following CDK enzyme in complex with different cyclin proteins and protein peptide substrate were used in these assays: • CDK1/CyclinB1, Avi-tag, 10 pM used in the assay • CDK2/CyclinE1, Avi-tag, 100 pM used in the assay • CDK4/cyclinD1, Avi-tag, 20 pM used in the assay • CDK6/cyclinD3, Avi-tag, 10 pM used in the assay • His-MBP-RB1[773-924], Avi-tag, 200 nM used in the assay
(§2) The avi-tag is a C-terminal fusion on the CDK1/2/4/6 sequence in each of these two-protein complexes. The known avi-tag sequence, […] (SEQ ID NO. 10), is a substrate for E. coli biotin ligase BirA, which covalently attaches a biotin molecule to the e-amino group of the lysine in that sequence. The avi-tag is attached with an 8 amino-acid linker sequence GGSGGGGS (SEQ ID NO. 11), resulting in the full C-terminal fusion
(§3) Recombinant proteins were generated as N-terminal fusions of 9× His tag—E. coli Maltose Binding Protein (MBP), with or without a C-terminal Avi-tag.^1 CDK2 and His-MBP-RB1[773-924]-c-avi were expressed in E. coli while the remainder were expressed in Sf21 insect cells. Genes were synthesized commercially (GeneArt and Twist Bioscience) using codon frequencies appropriate to the respective organisms and proprietary codon optimization strategies, and inserted into pET 24 (E. coli) or pDEST8 (insect) vectors already containing the 9× His-MBP tag using standard methods of PCR and Gibson Assembly.^2 E. coli expression was performed by auto-induction overnight at 18 or 21 C. For insect cell expression, bacmids and viruses were created,^3 then used to synchronously infect Sf21 insect cells with harvest at 40-48 hrs., per standard protocols.^4
(§4) For CDK2/Cyclin E and CDK1/Cyclin B, the CDK and Cyclin proteins were expressed separately, lysed by sonication and clarified by centrifugation. The fusion proteins were each separately purified by immobilized metal ion affinity chromatography (IMAC) (5 mL HisTrap, Cytiva) and Superdex 200 26/60 (Cytiva) size-exclusion and complexed in vitro (1-3 hrs incubation at room temperature) prior to tag cleavage by recombinant his-tagged Tobacco Etch Virus protease or his-tagged Human rhinovirus 3C protease, as appropriate. The cleaved complex is further purified by Superdex 75 26/60 (Cytiva) size-exclusion followed by reverse-IMAC, in which the complex is in the column flow-through and residual His-MBP and his-tagged proteases are retained. The final complex is concentrated as desired by centrifugal concentration (Amicon Ultra 10,000 Da MWCO 15 mL concentrators, Millipore).
For E. coli expressed CDK2 and His-MBP-RB1[773-924]-c-avi, the proteins were biotinylated in vitro after the first IMAC step.^1
(§5) For the is-MBP-RB1[773-924]-c-avi, the protein was lysed by sonication and clarified by centrifugation. […]

CDK1/CyclinB1 = CDK1/CyclinB1 (Homo sapiens, UniProt P06493); conditions: CDK1/CyclinB1 10 pM, 1 mM ATP, 60 min at 25° C.
Protocol: as §1, §2, §3, §4, §5

CDK4/cyclinD1 = CDK4/cyclinD1 (Homo sapiens, UniProt P11802); conditions: CDK4/cyclinD1 20 pM, 1 mM ATP, 60 min at 25° C.
Protocol: as §1, §2, §3
(§6) For CDK4/Cyclin D1 and CDK6/Cyclin D3, the complexes were expressed by simultaneous co-infection of insect cells by three separate viruses including one expressing untagged E. coli BirA. The expression media is supplemented with 50 uM d-biotin. The resulting protein complexes purified similarly. After lysis and clarification, the complex is purified by IMAC, Superdex 200 26/60 size exclusion, tag cleavage by human rhinovirus 3C protease, Superdex 75 26/60 size exclusion and reverse IMAC. BirA is typically not retained on the first IMAC, and excess CDK or Cyclin monomer is separated on the Superdex 200 size exclusion. Cleaved His-MBP and remaining monomer are removed by the Superdex 75 size exclusion and the reverse IMAC step. Final concentration by centrifugal concentrators as described above.
as §5

CDK6/cyclinD3 = CDK6/cyclinD3 (Homo sapiens, UniProt Q00534); conditions: CDK6/cyclinD3 10 pM, 1 mM ATP, 60 min at 25° C.
Protocol: as §1, §2, §3, §6, §5

IC50 (CDK2/CyclinE1) [nM]	IC50 (CDK1/CyclinB1) [µM]	IC50 (CDK4/cyclinD1) [µM]	IC50 (CDK6/cyclinD3) [µM]	Compound
54	3.16	≥ 10	≥ 10	Cn1cc(Oc2n[nH]cc2Nc2ncc3c(n2)N([C@@H]2CCC[C@@H](O)C2)C(=O)C32CC2)cn1 [Example 35, 7′-((1R,3R)-3-hydroxycyclohexyl)-2′-((3-((1-methyl-1H-pyrazol-4-yl)oxy)-1H-pyrazol-4-yl)amino)spiro[cyclopropane-1,5′-pyrrolo[2,3-d]pyrimidin]-6′(7′H)-one]
39	4.99	≥ 10	≥ 10	O=C1N([C@@H]2CCC[C@@H](O)C2)c2nc(Nc3c[nH]nc3C#Cc3cccnc3)ncc2C12CC2 [Example 36, 7′-((1R,3R)-3-hydroxycyclohexyl)-2′-((3-(pyridin-3-ylethynyl)-1H-pyrazol-4-yl)amino)spiro[cyclopropane-1,5′-pyrrolo[2,3-d]pyrimidin]-6′(7′H)-one]
5	0.73	2.68	5.09	O=C1N([C@@H]2CCC[C@@H](O)C2)c2nc(Nc3c[nH]nc3OCC(F)F)ncc2C12CC2 [Example 41, 2′-((3-(2,2-difluoroethoxy)-1H-pyrazol-4-yl)amino)-7′-((1R,3R)-3-hydroxycyclohexyl)spiro[cyclopropane-1,5′-pyrrolo[2,3-d]pyrimidin]-6′(7′H)-one]
24	3.74	3.64	3.01	O=C1N([C@@H]2CCC[C@@H](O)C2)c2nc(Nc3c[nH]nc3OCCO)ncc2C12CC2 [Example 42, 7′-((1R,3R)-3-hydroxycyclohexyl)-2′-((3-(2-hydroxyethoxy)-1H-pyrazol-4-yl)amino)spiro[cyclopropane-1,5′-pyrrolo[2,3-d]pyrimidin]-6′(7′H)-one]

More lines, now with the values behind:

Compound	IC50 (CDK2/CyclinE1) [nM]	IC50 (CDK1/CyclinB1) [µM]	IC50 (CDK4/cyclinD1) [µM]	IC50 (CDK6/cyclinD3) [µM]
O=C1N([C@@H]2CCC[C@@H](O)C2)c2nc(Nc3c[nH]nc3OC3CC(F)(F)C3)ncc2C12CC2 [Example 29, 2′-((3-(3,3-difluorocyclobutoxy)-1H-pyrazol-4-yl)amino)-7′-((1R,3R)-3-hydroxycyclohexyl)spiro[cyclopropane-1,5′-pyrrolo[2,3-d]pyrimidin]-6′(7′H)-one]	26	3.84	7.4	≥ 10
O=C1N([C@@H]2CCC[C@@H](O)C2)c2nc(Nc3c[nH]nc3OC3CCC(F)(F)C3)ncc2C12CC2 (some centres unmarked) [Example 30]	22	4.27	6.95	9.8
Cn1ncc(-c2n[nH]cc2Nc2ncc3c(n2)N([C@@H]2CCC[C@@H](O)C2)C(=O)C32CC2)c1C(F)F [Example 31, 2′-((5′-(difluoromethyl)-1′-methyl-1H,1′H-[3,4′-bipyrazol]-4-yl)amino)-7′-((1R,3R)-3-hydroxycyclohexyl)spiro[cyclopropane-1,5′-pyrrolo[2,3-d]pyrimidin]-6′(7′H)-one]	21	6.57	6.3	9.7
O=C1N([C@@H]2CCC[C@@H](O)C2)c2nc(Nc3c[nH]nc3[C@@H]3CC3(F)F)ncc2C12CC2 [Example 33, 2′-((3-((S)-2,2-difluorocyclopropyl)-1H-pyrazol-4-yl)amino)-7′-((1R,3R)-3-hydroxycyclohexyl)spiro[cyclopropane-1,5′-pyrrolo[2,3-d]pyrimidin]-6′(7′H)-one]	49	3.76	≥ 10	≥ 10
O=C1N([C@@H]2CCC[C@@H](O)C2)c2nc(Nc3c[nH]nc3-c3cnn(C(F)F)c3)ncc2C12CC2 [Example 34, 2′-((1′-(difluoromethyl)-1H,1′H-[3,4′-bipyrazol]-4-yl)amino)-7′-((1R,3R)-3-hydroxycyclohexyl)spiro[cyclopropane-1,5′-pyrrolo[2,3-d]pyrimidin]-6′(7′H)-one]	10	2.31	3.31	3.31
Cc1c(-c2n[nH]cc2Nc2ncc3c(n2)N([C@@H]2CCC[C@@H](O)C2)C(=O)C32CC2)cnn1C [Example 37, 2′-((1′,5′-dimethyl-1H,1′H-[3,4′-bipyrazol]-4-yl)amino)-7′-((1R,3R)-3-hydroxycyclohexyl)spiro[cyclopropane-1,5′-pyrrolo[2,3-d]pyrimidin]-6′(7′H)-one]	31	≥ 10	≥ 10	≥ 10
O=C1N([C@@H]2CCC[C@@H](O)C2)c2nc(Nc3c[nH]nc3OCC3CC3)ncc2C12CC2 [Example 38, 2′-((3-(cyclopropylmethoxy)-1H-pyrazol-4-yl)amino)-7′-((1R,3R)-3-hydroxycyclohexyl)spiro[cyclopropane-1,5′-pyrrolo[2,3-d]pyrimidin]-6′(7′H)-one]	8	1.04	6.1	9.2
O=C1N([C@@H]2CCC[C@@H](O)C2)c2nc(Nc3c[nH]nc3OCCF)ncc2C12CC2 [Example 39, 2′-((3-(2-fluoroethoxy)-1H-pyrazol-4-yl)amino)-7′-((1R,3R)-3-hydroxycyclohexyl)spiro[cyclopropane-1,5′-pyrrolo[2,3-d]pyrimidin]-6′(7′H)-one]	7	1.2	1.43	2.95
O=C1N([C@@H]2CCC[C@@H](O)C2)c2nc(Nc3c[nH]nc3OC3CCC3)ncc2C12CC2 [Example 40, 2′-((3-cyclobutoxy-1H-pyrazol-4-yl)amino)-7′-((1R,3R)-3-hydroxycyclohexyl)spiro[cyclopropane-1,5′-pyrrolo[2,3-d]pyrimidin]-6′(7′H)-one]	26	2.89	≥ 10	≥ 10
Cn1ccc(COc2n[nH]cc2Nc2ncc3c(n2)N([C@@H]2CCC[C@@H](O)C2)C(=O)C32CC2)n1 [Example 43, 7′-((1R,3R)-3-hydroxycyclohexyl)-2′-((3-((1-methyl-1H-pyrazol-3-yl)methoxy)-1H-pyrazol-4-yl)amino)spiro[cyclopropane-1,5′-pyrrolo[2,3-d]pyrimidin]-6′(7′H)-one]	19	1.76	3.09	8.84
